Measurements reported in patent US20080114007A1 (priority 2006, published 2008).

molecular target: CSF-1R (Homo sapiens, UniProt P07333); test: Peptide (non-phosphorylated) assay, fluorescence polarization competition immunoassay; format: biochemical; conditions: 0.7 nM CSF-1R, 308 μM SYEGNSYTFIDPTQ peptide, 1 mM ATP, 80 min; mean of at least three determinations; read-out: c-fms Peptide IC50
Outline: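 Human CSF-1R kinase reaction started with ATP and run 80 min at room temperature, then stopped with EDTA. Phosphopeptide detected by fluorescence polarization competition using anti-phosphotyrosine antibody and PTK green tracer after 30 min. Controls used 4% DMSO, with EDTA added before reaction start for positive controls.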

Chain of CSF-1R (P07333 20-972): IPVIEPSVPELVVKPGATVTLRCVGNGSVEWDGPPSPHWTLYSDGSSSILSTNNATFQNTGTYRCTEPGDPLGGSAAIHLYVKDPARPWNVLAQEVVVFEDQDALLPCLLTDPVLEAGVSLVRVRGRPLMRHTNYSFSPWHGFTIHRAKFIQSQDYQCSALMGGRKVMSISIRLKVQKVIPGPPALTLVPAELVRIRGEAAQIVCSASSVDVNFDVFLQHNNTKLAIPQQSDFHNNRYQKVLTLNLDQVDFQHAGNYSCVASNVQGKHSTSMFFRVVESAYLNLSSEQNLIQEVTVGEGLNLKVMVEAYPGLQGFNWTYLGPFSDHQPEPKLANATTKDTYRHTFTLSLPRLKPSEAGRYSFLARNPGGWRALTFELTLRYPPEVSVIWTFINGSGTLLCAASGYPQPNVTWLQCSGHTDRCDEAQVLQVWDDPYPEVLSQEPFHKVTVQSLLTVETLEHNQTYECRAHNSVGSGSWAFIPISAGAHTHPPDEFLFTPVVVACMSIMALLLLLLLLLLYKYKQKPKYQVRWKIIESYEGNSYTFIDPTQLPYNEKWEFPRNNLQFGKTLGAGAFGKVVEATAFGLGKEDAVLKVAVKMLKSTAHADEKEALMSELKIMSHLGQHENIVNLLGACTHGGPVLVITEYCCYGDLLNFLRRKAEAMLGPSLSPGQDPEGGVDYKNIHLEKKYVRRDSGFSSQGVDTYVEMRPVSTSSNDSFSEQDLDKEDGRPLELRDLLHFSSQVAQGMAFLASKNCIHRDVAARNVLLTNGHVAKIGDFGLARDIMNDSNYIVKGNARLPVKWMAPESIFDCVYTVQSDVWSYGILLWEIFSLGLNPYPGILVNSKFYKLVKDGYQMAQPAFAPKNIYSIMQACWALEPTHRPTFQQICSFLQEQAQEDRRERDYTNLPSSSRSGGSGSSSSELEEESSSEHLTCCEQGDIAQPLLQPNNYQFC

SMILES	IC50 [nM]
CONC(=O)c1cn(-c2ccc(OC(F)(F)F)cc2)c2nc(Nc3ccc(C4CCN(S(N)(=O)=O)CC4)cc3)ncc2c1=O [Cpd 177, 5-oxo-2-[4-(1-sulfamoyl-piperidin-4-yl)-phenylamino]-8-(4-trifluoromethoxyphenyl)-5,8-dihydropyrido[2,3-d]pyrimidine-6-carboxylic acid methoxy-amide]	6.6
CCONC(=O)c1cn(C2CCCCC2)c2nc(Nc3ccc(C4CCNCC4)cc3)ncc2c1=O [Cpd 27, 8-cyclohexyl-5-oxo-2-(4-piperidin-4-yl-phenylamino)-5,8-dihydro-pyrido[2,3-d]pyrimidine-6-carboxylic acid ethoxy-amide]	1.6
CONC(=O)c1cn(-c2ccc3c(c2)CCC3)c2nc(Nc3ccc(CCN4CC(F)(F)C4)cc3)ncc2c1=O [Cpd 270, 2-{4-[2-(3,3-difluoro-azetidin-1-yl)-ethyl]-phenylamino}-8-indan-5-yl-5-oxo-5,8-dihydro-pyrido[2,3-d]pyrimidine-6-carboxylic acid methoxy-amide]	1.6
CC(C)ONC(=O)c1cn(-c2ccc3c(c2)CCC3)c2nc(Nc3ccc(S(=O)(=O)N(C)C)cc3)ncc2c1=O [Cpd 137, 2-(4-dimethylsulfamoyl-phenylamino)-8-indan-5-yl-5-oxo-5,8-dihydro-pyrido[2,3-d]pyrimidine-6-carboxylic acid isopropoxy-amide]	16
CCc1ccc(-n2cc(C(=O)NOC)c(=O)c3cnc(Nc4cccc(OCCCOC)c4)nc32)cc1 [Cpd 216, 8-(4-ethyl-phenyl)-2-[3-(3-methoxy-propoxy)-phenylamino]-5-oxo-5,8-dihydro-pyrido[2,3-d]pyrimidine-6-carboxylic acid methoxy-amide]	1.6
CONC(=O)c1cn(-c2ccc(Cl)cc2)c2nc(Nc3ccc(CCN4CCN(C)CC4)cc3)ncc2c1=O [Cpd 34, 8-(4-chloro-phenyl)-2-{4-[2-(4-methyl-piperazin-1-yl)-ethyl]-phenylamino}-5-oxo-5,8-dihydro-pyrido[2,3-d]pyrimidine-6-carboxylic acid methoxy-amide]	3.8
CONC(=O)c1cn(-c2ccc3c(c2)CCC3)c2nc(Nc3ccc(CCNC4C5CC6CC(C5)CC4C6)cc3)ncc2c1=O (stereo not shown) [Cpd 107, 2-{4-[2-(adamantan-2-ylamino)-ethyl]-phenylamino}-8-indan-5-yl-5-oxo-5,8-dihydro-pyrido[2,3-d]pyrimidine-6-carboxylic acid methoxy-amide]	1.5
CONC(=O)c1cn(-c2ccc(OC(F)(F)F)cc2)c2nc(Nc3ccc(CCc4n[nH]c(C)n4)cc3)ncc2c1=O [Cpd 191, 2-{4-[2-(5-methyl-1H-[1,2,4]triazol-3-yl)-ethyl]-phenylamino}-5-oxo-8-(4-trifluoromethoxyphenyl)-5,8-dihydropyrido[2,3-d]pyrimidine-6-carboxylic acid methoxy-amide]	5.6
COCCNC(=O)c1cn(-c2ccc3c(c2)CCC3)c2nc(Nc3ccc(CCN4CCCC4)cc3)ncc2c1=O [Cpd 132, 8-indan-5-yl-5-oxo-2-[4-(2-pyrrolidin-1-yl-ethyl)-phenylamino]-5,8-dihydro-pyrido[2,3-d]pyrimidine-6-carboxylic acid (2-methoxy-ethyl)-amide]	12
CONC(=O)c1cn(-c2ccc3c(c2)CCC3)c2nc(Nc3ccc(C4CCN(CCO)CC4)cc3)ncc2c1=O [Cpd 88, 2-{4-[1-(2-hydroxy-ethyl)-piperidin-4-yl]-phenylamino}-8-indan-5-yl-5-oxo-5,8-dihydro-pyrido[2,3-d]pyrimidine-6-carboxylic acid methoxy-amide]	1.3
CONC(=O)c1cn(C2CCCCC2)c2nc(Nc3ccc(C4CCNCC4)cc3)ncc2c1=O [Cpd 26, 8-cyclohexyl-5-oxo-2-(4-piperidin-4-yl-phenylamino)-5,8-dihydro-pyrido[2,3-d]pyrimidine-6-carboxylic acid methoxy-amide]	1.4
CCc1ccc(-n2cc(C(=O)NOC)c(=O)c3cnc(Nc4ccc(CC(=O)O)cc4)nc32)cc1 [Cpd 103, {4-[8-(4-ethyl-phenyl)-6-methoxycarbamoyl-5-oxo-5,8-dihydro-pyrido[2,3-d]pyrimidin-2-ylamino]-phenyl}-acetic acid]	7.2
CONC(=O)c1cn(C2CCCC2)c2nc(Nc3ccc(C4CCN(C(C)=O)CC4)cc3)ncc2c1=O [Cpd 46, 2-[4-(1-acetyl-piperidin-4-yl)-phenylamino]-8-cyclopentyl-5-oxo-5,8-dihydro-pyrido[2,3-d]pyrimidine-6-carboxylic acid methoxy-amide]	2.6
CONC(=O)c1cn(-c2ccc3c(c2)CCC3)c2nc(Nc3ccc(Cc4nnn[nH]4)cc3)ncc2c1=O [Cpd 91, 8-indan-5-yl-5-oxo-2-[4-(1H-tetrazol-5-ylmethyl)-phenylamino]-5,8-dihydro-pyrido[2,3-d]pyrimidine-6-carboxylic acid methoxy-amide]	2
CONC(=O)c1cn(C2CCCCC2)c2nc(Nc3ccc(CN4CCCC4=O)cc3)ncc2c1=O [Cpd 12, 8-cyclohexyl-5-oxo-2-[4-(2-oxo-pyrrolidin-1-ylmethyl)-phenylamino]-5,8-dihydro-pyrido[2,3-d]pyrimidine-6-carboxylic acid methoxy-amide]	1.3

Results, then the compound that gave them:

IC50 [nM]	SMILES
1.2	CCc1ccc(-n2cc(C(=O)NOC)c(=O)c3cnc(Nc4ccc(C5CCN(CCc6ccccc6)CC5)cc4)nc32)cc1 [Cpd 295, 8-(4-ethyl-phenyl)-5-oxo-2-[4-(1-phenethyl-piperidin-4-yl)-phenylamino]-5,8-dihydro-pyrido[2,3-d]pyrimidine-6-carboxylic acid methoxy-amide]
1.1	CONC(=O)c1cn(-c2ccc3c(c2)CCC3)c2nc(Nc3ccc(CCN4CCC[C@@H]4C(=O)O)cc3)ncc2c1=O [Cpd 109, (R)-1-{2-[4-(8-indan-5-yl-6-methoxycarbamoyl-5-oxo-5,8-dihydro-pyrido[2,3-d]pyrimidin-2-ylamino)-phenyl]-ethyl}-pyrrolidine-2-carboxylic acid]
1.1	CCc1ccc(-n2cc(C(=O)NOC)c(=O)c3cnc(Nc4ccc(CCN5CCN(C)CC5)cc4)nc32)cc1 [Cpd 56, 8-(4-ethyl-phenyl)-2-{4-[2-(4-methyl-piperazin-1-yl)-ethyl]-phenylamino}-5-oxo-5,8-dihydro-pyrido[2,3-d]pyrimidine-6-carboxylic acid methoxy-amide]
0.95	COCCOc1cccc(Nc2ncc3c(=O)c(C(=O)NOC)cn(-c4ccc5c(c4)CCC5)c3n2)c1 [Cpd 261, 8-indan-5-yl-2-[3-(2-methoxy-ethoxy)-phenylamino]-5-oxo-5,8-dihydro-pyrido[2,3-d]pyrimidine-6-carboxylic acid methoxy-amide]
0.8	CONC(=O)c1cn(-c2ccc(C)c(C)c2)c2nc(Nc3ccc(CCN4CCN(C)CC4)cc3)ncc2c1=O [Cpd 52, 8-(3,4-dimethyl-phenyl)-2-{4-[2-(4-methyl-piperazin-1-yl)-ethyl]-phenylamino}-5-oxo-5,8-dihydro-pyrido[2,3-d]pyrimidine-6-carboxylic acid methoxy-amide]
0.76	CONC(=O)c1cn(-c2ccc3c(c2)CCC3)c2nc(Nc3ccc(CCn4ccnc4)cc3)ncc2c1=O [Cpd 171, 2-[4-(2-imidazol-1-yl-ethyl)-phenylamino]-8-indan-5-yl-5-oxo-5,8-dihydro-pyrido[2,3-d]pyrimidine-6-carboxylic acid methoxy-amide]
0.71	CONC(=O)c1cn(-c2ccc3c(c2)CCC3)c2nc(Nc3ccc(C4CCN(C)CC4(F)F)cc3)ncc2c1=O (stereo not shown) [Cpd 237, 2-[4-(3,3-difluoro-1-methyl-piperidin-4-yl)-phenylamino]-8-indan-5-yl-5-oxo-5,8-dihydro-pyrido[2,3-d]pyrimidine-6-carboxylic acid methoxy-amide]
0.71	CNCCS(=O)(=O)c1cccc(Nc2ncc3c(=O)c(C(=O)NOC)cn(-c4ccc5c(c4)CCC5)c3n2)c1 [Cpd 231, 8-indan-5-yl-2-[3-(2-methylamino-ethanesulfonyl)-phenylamino]-5-oxo-5,8-dihydro-pyrido[2,3-d]pyrimidine-6-carboxylic acid methoxy-amide]
0.58	CCc1ccc(-n2cc(C(=O)NOC)c(=O)c3cnc(Nc4ccc(CCN5CCNC(=O)C5)cc4)nc32)cc1 [Cpd 224, 8-(4-ethyl-phenyl)-5-oxo-2-{4-[2-(3-oxo-piperazin-1-yl)-ethyl]-phenylamino}-5,8-dihydro-pyrido[2,3-d]pyrimidine-6-carboxylic acid methoxy-amide]
0.53	CONC(=O)c1cn(-c2ccc3c(c2)CCC3)c2nc(Nc3ccc(C4CCNCC4)cc3)ncc2c1=O [Cpd 75, 8-indan-5-yl-5-oxo-2-(4-piperidin-4-yl-phenylamino)-5,8-dihydro-pyrido[2,3-d]pyrimidine-6-carboxylic acid methoxy-amide]
0.5	CONC(=O)c1cn(-c2ccc3c(c2)CCC3)c2nc(Nc3cccc(N4CCOCC4)c3)ncc2c1=O [Cpd 325, 8-indan-5-yl-2-(3-morpholin-4-yl-phenylamino)-5-oxo-5,8-dihydro-pyrido[2,3-d]pyrimidine-6-carboxylic acid methoxy-amide]
0.3	CCc1ccc(-n2cc(C(=O)NOC)c(=O)c3cnc(Nc4ccc(C5CCN(CCOC)CC5)cc4)nc32)cc1 [Cpd 207, 8-(4-ethyl-phenyl)-2-{4-[1-(2-methoxy-ethyl)-piperidin-4-yl]-phenylamino}-5-oxo-5,8-dihydro-pyrido[2,3-d]pyrimidine-6-carboxylic acid methoxy-amide]

same assay, conditions: c-fms Peptide IC50, 0.7 nM CSF-1R, 308 μM SYEGNSYTFIDPTQ peptide, 1 mM ATP, 80 min; mean of at least three determinations

SMILES	IC50 [nM]
CONC(=O)c1cn(-c2ccc3c(c2)CCC3)c2nc(Nc3ccc(CCN4CCOCC4)cc3)ncc2c1=O [Cpd 80, 8-indan-5-yl-2-[4-(2-morpholin-4-yl-ethyl)-phenylamino]-5-oxo-5,8-dihydro-pyrido[2,3-d]pyrimidine-6-carboxylic acid methoxy-amide]	1.3
